Earlier results as cited in US20110135569A1, “METHOD FOR THERAPEUTIC ADMINISTRATION OF RADIONUCLEOSIDES” (Peak Biosciences Inc., priority 2007, published 2011).

How the values were obtained:
replicating cancer cells = details: low picomolar range, e.g. value
[1] = human subjects; locally injected or intra-arterially infused

O=c1[nH]c(=O)n([C@H]2C[C@H](O)[C@@H](CO)O2)cc1[125I] [^125IUDR, 5-[^125I]-iodouridine 2′-deoxyribonucleoside]
concentration able to destroy the chromosomes of replicating cancer cells (replicating cancer cells): 5 picomoles/liter | plasma half-life [1]: less than 5 minutes
